One data set is described as follows: in vivo. Also on record: species or system SPF Wistar rats. To be noted: rat, in vivo, ip; one injection i.p., rats; dose causing 50 percent lethality. The essentials: (§1)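 SPF Wistar rats were implanted i.p. with 5 × 10^6 AH 130 cells and given one i.p. dose the next day. On day 8 they were killed and tumour weights were compared with controls. ED50 is the dose halving tumour size, LD50 the 50% lethal dose, and T.I. is LD50/ED50.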

Another data set has as its system Hepatoma AH 130. The experiment in a line: animal or person. The arrangement: species or system SPF Wistar rats. To be noted: for ED50: Rattus norvegicus, ip, 192 h, one injection i.p. day after implantation, dose causing 50 percent reduction of tumour size; for T.I. (LD50/ED50): Hepatoma AH 130, rats, i.p. Summed up: as §1
Data set [1] deals with Walker carcinosarcoma 256. Description: Walker carcinosarcoma 256 test. The data set is classed as in vivo, Sprague Dawley rats. To be noted: for Lethality: died/used animals. The source says: (§2) The experimental design and the interpretation of the results have been in accordance with the standards set by the CCNSC (Cancer Chemotherapy Reports, January 1959 and December 1962), and by the DR&D (Cancer Chemotherapy Reports, September 1972, Vol. 3, No. 2).
(§3) The way of administration is by the intraperitoneal route (i.p.) in each case.
Walker carcinosarcoma 256
Experimental animals: Sprague Dawley rats.
Tumour implant: Tumour pieces with 2-4 mm diameter, subcutaneously.
Therapy: Daily injections i.p. for 5 days starting on the day following implantation.
Termination: The animals are killed on the 9th day.
Evaluation: Weights of tumours of test animals are compared with those of control animals. The differences, in per cent of weights of tumours of control animals, give per cent tumour inhibition.
The lethality is given as the number of animals which died in the experiment/the number of animals used in the experiments.

Data set [2] relates to Ehrlich ascites tumour, ELD hyperdiploid (46 chromosomes). Description: Ehrlich ascites tumour test (LD50, ED50, therapeutic index). The data set is classed as in vivo, SPF NMRI mice. The following applies: additional compounds, result in words. The essentials: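 SPF NMRI mice implanted i.p. with 2 × 10^6 Ehrlich ascites (ELD hyperdiploid) cells and given a single i.p. dose the next day; killed on day 8. ED50 = dose halving tumour weight versus controls, LD50 = dose lethal to 50%; T.I. = LD50/ED50.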

Data set [3] relates to Lymphatic leukemia L 1210. Description: Lymphatic leukemia L 1210 test. It is filed as in vivo, CDF1 (C3H×DBA/2)F1 mice. The following applies: for effect on L 1210: result in words, dose not given; for Effect %: survival time as percentage of control; for Weight change v: vs control up to the 5th day.
From the text: as §2, §3
Lymphatic leukemia L 1210
Experimental animals: CDF1 (C3H×DBA/2)F1 mice.
Tumour implant: 10^5 tumour cells i.p.
Therapy: One injection i.p. on the day following implantation.
Evaluation: a) The survival time of the test animals (t) expressed as the percentage of that of control animals (c).
b. Weight change in the test animals (T) compared with that of the control animals (c) up to the 5th day.
c. The mortality rate must not exceed 35% in the test animals on the 5th day of therapy.

What is called LD50 is the dose expected to kill half of the subjects tested. Low values mean greater toxicity, high ones lower toxicity. Usually ED50 stands for the dose that gives a 50% effect, or the effect in half of the subjects. Lower therefore signals an effect at a small dose.

The structures appear in SMILES notation.

In the case of `C[C@]12CC[C@@H](OC(=O)N(CCCl)N=O)C[C@@H]1CC[C@@H]1[C@@H]2CC[C@]2(C)[C@@H](OC(=O)N(CCCl)N=O)CC[C@@H]12` [androstanediol-3α,17β-bis/N-(2-chloroethyl)-N-nitroso carbamate/], the LD50 in “in vivo” was more than 1000 mg/kg. Besides, in the data set on Hepatoma AH 130, the 50% effect level (ED50) was put at a dose of 1 mg/kg. Moreover, in data set [1] (5×250 mg/kg i.p.), the Tumour inhibition % came to 75% and the Lethality was 1/8. The anti-tumor activity entry in data set [2] is “exhibit anti-tumor activity”. The “effect on L 1210” value in data set [3] is “show a significant effect”.
For `C[C@]12CCC(=O)C[C@@H]1CC[C@@H]1[C@@H]2CC[C@]2(C)[C@@H](OC(=O)N(CCCl)N=O)CC[C@@H]12` [dihydrotestosterone-17β-N-(2-chloroethyl)-N-nitroso carbamate], in “in vivo”, the 50% lethal dose (LD50) is more than 1000 mg/kg. This compound also returned an ED50 in the data set on Hepatoma AH 130 of 1 mg/kg. Also, in data set [1] (5×250 mg/kg i.p.), the Tumour inhibition % turned out to be 51% and the Lethality is 0/8. Besides, the anti-tumor activity entry in data set [2] is reported as “exhibit anti-tumor activity”. In data set [3] (1×125 mg/kg i.p.), the Mortality is recorded as 0/20, the Effect % was found to be 135% and the Weight change v is recorded as -0.9 g.
The compound `CC(=O)O[C@H]1CC[C@H]2[C@@H]3CC=C4C[C@@H](OC(=O)N(CCCl)N=O)CC[C@]4(C)[C@H]3CC[C@]12C` [androstenediol-17β-acetate-3β-N-(2-chloroethyl)-N-nitroso carbamate] registered an LD50 in “in vivo” of more than 250 mg/kg. The compound further had a 50% effective dose (ED50) in the data set with Hepatoma AH 130 of 0.25 mg/kg. Moreover, in data set [1] (5×125 mg/kg i.p.), the Tumour inhibition % stood at 59% and the Lethality is reported as 0/8. Further, in data set [2], the anti-tumor activity entry is given as “exhibit anti-tumor activity”.
Regarding `C[C@]12CC[C@@H]3c4ccc(OC(=O)N(CCCl)N=O)cc4CC[C@H]3[C@@H]1CC[C@@H]2O` [17β-estradiol-3-N-(2-chloroethyl)-N-nitroso carbamate], in the data set “in vivo”, the median lethal dose (LD50) is more than 1000 mg/kg. Besides, in the data set with Hepatoma AH 130, the “T.I. (LD50/ED50)” value is more than 4.000 and the ED50 was less than 0.25 mg/kg. Also, in data set [1] (5×31 mg/kg i.p.), the Tumour inhibition % amounted to 86% and the Lethality was 0/8. Also, the anti-tumor activity result in data set [2] was “exhibit anti-tumor activity”.
For the compound `C[C@]12CC[C@H](OC(=O)N(CCBr)N=O)CC1=CC[C@@H]1[C@@H]2CC[C@]2(C)C(=O)CC[C@@H]12` [dehydroepiandrosterone-3β-N-(2-bromoethyl)-N-nitroso carbamate], the median lethal dose (LD50) in the data set “in vivo” is more than 1000 mg/kg. Moreover, in the data set with Hepatoma AH 130, the “T.I. (LD50/ED50)” value was more than 14 and the ED50 was 70 mg/kg. In addition, in data set [1] (5×250 mg/kg i.p.), the Tumour inhibition % is listed as 61% and the Lethality is 0/8. Besides, the anti-tumor activity entry in data set [2] is “exhibit anti-tumor activity”.
In the data set “in vivo”, `CC(Cl)CN(N=O)C(=O)O[C@H]1CC[C@@]2(C)C(=CC[C@@H]3[C@@H]2CC[C@]2(C)C(=O)CC[C@@H]32)C1` (stereo partly drawn) [dehydroepiandrosterone-3β-N-(2-chloropropyl)-N-nitroso carbamate] yielded an LD50 of more than 1000 mg/kg. In addition, in the data set on Hepatoma AH 130, the “T.I. (LD50/ED50)” value is more than 10 and the 50% effective dose (ED50) came to 100 mg/kg. Further, in data set [2], the anti-tumor activity result is reported as “exhibit anti-tumor activity”.
Turning to `CC(C)CCC[C@@H](C)[C@H]1CC[C@H]2[C@@H]3CC=C4C[C@@H](OC(=O)N(CCCl)N=O)CC[C@]4(C)[C@H]3CC[C@]12C` [cholesterol-3β-N-(2-chloroethyl)-N-nitroso carbamate], in the data set “in vivo”, the LD50 is more than 1000 mg/kg. Besides, in the data set on Hepatoma AH 130, the “T.I. (LD50/ED50)” value is given as more than 5 and the 50% effective dose (ED50) was determined as 200 mg/kg. In data set [1] (5×500 mg/kg i.p.), the Tumour inhibition % came to 39% and the Lethality is on record as 0/8. The anti-tumor activity entry in data set [2] is “exhibit anti-tumor activity”.
For `C[C@]12CC[C@@H]3c4ccc(OC(=O)N(CCCl)N=O)cc4CC[C@H]3[C@@H]1CCC2=O` [estrone-3-N-(2-chloroethyl)-N-nitroso carbamate], the LD50 in “in vivo” was more than 1000 mg/kg. In the data set with Hepatoma AH 130, the “T.I. (LD50/ED50)” value is on record as more than 2.000 and the ED50 amounted to 0.5 mg/kg. In data set [1] (5×125 mg/kg i.p.), the Tumour inhibition % was determined as 75% and the Lethality is recorded as 0/8. Moreover, the anti-tumor activity result in data set [2] was “exhibit anti-tumor activity”. The “effect on L 1210” value in data set [3] is on record as “show a significant effect”.
As for `C[C@]12CC[C@H]3[C@@H](CC=C4C[C@@H](OC(=O)N(CCCl)N=O)CC[C@@]43C)[C@@H]1CC[C@@H]2OC(=O)N(CCCl)N=O` [androstenediol-3β,17β-bis-/N-(2-chloroethyl)-N-nitroso carbamate/], in “in vivo”, the LD50 was more than 250 mg/kg. The compound also returned an ED50 in the data set on Hepatoma AH 130 of 0.25 mg/kg. Also, the anti-tumor activity result in data set [2] is “exhibit anti-tumor activity”.
Regarding `COc1ccc2c(c1)CC[C@@H]1[C@@H]2CC[C@]2(C)[C@@H](OC(=O)N(CCCl)N=O)CC[C@@H]12` [estradiol-3-methylether-17β-N-(2-chloroethyl)-N-nitroso carbamate], in the data set “in vivo”, the median lethal dose (LD50) is more than 1000 mg/kg. Besides, in the data set with Hepatoma AH 130, the “T.I. (LD50/ED50)” value is more than 2.000 and the median effective dose (ED50) came to 0.5 mg/kg. Besides, in data set [1] (5×250 mg/kg i.p.), the Tumour inhibition % came out at 66% and the Lethality is 0/8. The anti-tumor activity result in data set [2] is reported as “exhibit anti-tumor activity”.
For `CC(=O)[C@H]1CC[C@H]2[C@@H]3CC=C4C[C@@H](OC(=O)N(CCCl)N=O)CC[C@]4(C)[C@H]3CC[C@]12C` [pregnenolone-3β-N-(2-chloroethyl)-N-nitroso carbamate], in “in vivo”, the median lethal dose (LD50) is more than 1000 mg/kg. In addition, in the data set with Hepatoma AH 130, the “T.I. (LD50/ED50)” value is recorded as more than 526 and the median effective dose (ED50) was 1.9 mg/kg. Further, in data set [1] (5×500 mg/kg i.p.), the Tumour inhibition % stood at 55% and the Lethality is 0/8. Further, the anti-tumor activity result in data set [2] is reported as “exhibit anti-tumor activity”. Further, in data set [3] (1×500 mg/kg i.p.), the Mortality is 0/20, the Effect % came to 136% and the Weight change v is -0.8 g.
Regarding `CC(=O)O[C@H]1CC[C@H]2[C@@H]3CCc4cc(OC(=O)N(CCCl)N=O)ccc4[C@H]3CC[C@]12C` [estradiol-17β-acetate-3-N-(2-chloroethyl)-N-nitroso carbamate], the LD50 in “in vivo” was more than 1000 mg/kg. In the data set on Hepatoma AH 130, the “T.I. (LD50/ED50)” value was more than 4.000 and the 50% effective dose (ED50) was less than 0.25 mg/kg. Also, in data set [1] (5×125 mg/kg i.p.), the Tumour inhibition % amounted to 69% and the Lethality is given as 1/8. In addition, the anti-tumor activity result in data set [2] is listed as “exhibit anti-tumor activity”.
Compound `CC(=O)O[C@H]1CC[C@@]2(C)C(=CC[C@H]3[C@@H]4CC[C@H](OC(=O)N(CCCl)N=O)[C@@]4(C)CC[C@@H]32)C1` [androstenediol-3β-acetate-17β-N-(2-chloroethyl)-N-nitroso carbamate] came in with an LD50 in the data set “in vivo” of more than 250 mg/kg. This compound also registered a 50% effective dose (ED50) with Hepatoma AH 130 of 0.25 mg/kg. Also, in data set [1] (5×125 mg/kg i.p.), the Tumour inhibition % came out at 41% and the Lethality is reported as 0/8. The anti-tumor activity entry in data set [2] is “exhibit anti-tumor activity”.
On to `C[C@]12CC[C@@H]3c4ccc(OC(=O)c5ccccc5)cc4CC[C@H]3[C@@H]1CC[C@@H]2OC(=O)N(CCCl)N=O` [estradiol-3-benzoate-17β-N-(2-chloroethyl)-N-nitroso carbamate], for which the LD50 in the data set “in vivo” was more than 1000 mg/kg. In addition, in the data set on Hepatoma AH 130, the “T.I. (LD50/ED50)” value is given as more than 16 and the 50% effective dose (ED50) is less than 63 mg/kg. For the same compound, in data set [1] (5×125 mg/kg i.p.), the Tumour inhibition % came out at 73% and the Lethality is on record as 0/8. The anti-tumor activity result in data set [2] is listed as “exhibit anti-tumor activity”.
The compound `C[C@]12CC[C@H](OC(=O)N(CCCCl)N=O)CC1=CC[C@@H]1[C@@H]2CC[C@]2(C)C(=O)CC[C@@H]12` [dehydroepiandrosterone-3β-N-(3-chloropropyl)-N-nitroso carbamate] came in with an LD50 in “in vivo” of more than 1000 mg/kg. Further, in the data set on Hepatoma AH 130, the “T.I. (LD50/ED50)” value is given as more than 2.7 and the 50% effective dose (ED50) came to 375 mg/kg. Besides, in data set [1] (5×500 mg/kg i.p.), the Tumour inhibition % was 24% and the Lethality was 0/8. In addition, the anti-tumor activity entry in data set [2] is reported as “exhibit anti-tumor activity”.

The record behind these values is patent US3963707A, “Novel N-nitroso compounds, compositions containing such compounds, processes for their preparation and methods of treatment therewith, and novel intermediates” (Aktiebolaget Leo, priority 1973, dated 1976).
